Among the data in PMC11995724, “Antibiotic target discovery by integrated phenotypic and activity-based profiling of electrophilic fragments” (Cell chemical biology, 2025) are viability values, retold here.

Counter-ions that a name gives are not always drawn.

For orientation: viability means a read-out of living cells in per cent, often relative to untreated cells.

The data set is described as follows: in vitro. Particulars: human, hek293t cells.
Method: Mammalian cytotoxicity measurement was performed using Cell Titer-Glo 2.0 Cell Viability Assay (Promega, G9243) according to the manufacturer protocol. In brief, mammalian cells were seeded into 384-well white plates (Greiner, 781080) and incubated at 37°C for one day. Compounds from the Cys-Library were dispensed into the assay plate using epMotion 96. The plates were then incubated at 37°C for two days. An equal volume of Cell Titer-Glo 2.0 reagent was added into each well of the assay plate using epMotion 96 and incubated at 22°C for 10 min, followed by luminescence measurement using a Cytation 5 plate reader (BioTek).
Take `O=C(CCl)C1CC1(Cl)Cl` (stereo not shown) [10-K09, 2-chloro-1-(2,2-dichlorocyclopropyl)ethan-1-one]: the viability at 48 h, 25 µM worked out at 1.74%.
With `COc1ccc(Cl)cc1N1C(=O)C=CC1=O` [10-K10, 1-(5-chloro-2-methoxyphenyl)-2,5-dihydro-1H-pyrrole-2,5-dione] the figure was 81.3%; with `O=C(CCl)c1sccc1Cl` [10-K11, 2-chloro-1-(3-chlorothiophen-2-yl)ethan-1-one], 17%; with `O=C1C=CC(=O)N1c1ccccc1Sc1ccccc1` [10-K12, 1-[2-(phenylsulfanyl)phenyl]-2,5-dihydro-1H-pyrrole-2,5-dione], 63%.
Next, `Cc1noc(C)c1C(=O)CCl` [10-K13, 2-chloro-1-(3,5-dimethyl-1,2-oxazol-4-yl)ethan-1-one]: 56.9%; `Cc1cc(C(=O)CCl)c(C)n1-c1ccc2c(c1)OCO2` [10-K14, 1-[1-(1,3-dioxaindan-5-yl)-2,5-dimethyl-1H-pyrrol-3-yl]-2-chloroethan-1-one]: 22.4%.
Next, `O=C(CCl)Cc1c(Cl)cccc1Cl` [10-K15, 1-chloro-3-(2,6-dichlorophenyl)propan-2-one]: 23.3%.
For the compound `Cc1cc(C(=O)CCl)c(C)s1` [10-K16, 2-chloro-1-(2,5-dimethylthiophen-3-yl)ethan-1-one], the viability at 48 h, 25 µM was determined as 0.769%.
With `O=C(CCl)Cc1cccc(F)c1F` [10-K17, 1-chloro-3-(2,3-difluorophenyl)propan-2-one] the figure was 33.7%; with `Cc1ccc2nc(-c3ccc(N4C(=O)C=CC4=O)cc3)sc2c1` [10-K18, 1-[4-(6-methyl-1,3-benzothiazol-2-yl)phenyl]-2,5-dihydro-1H-pyrrole-2,5-dione], 107%; with `O=C(CCl)C1(F)CCCCC1` [10-K19, 2-chloro-1-(1-fluorocyclohexyl)ethan-1-one], 97.5%.
On to `O=CN1CCc2cc(C(=O)CCl)ccc21` [10-K20, 5-(2-chloroacetyl)-2,3-dihydro-1H-indole-1-carbaldehyde], for which the viability at 48 h, 25 µM was 89.7%.
For the compound `COC(=O)c1c(C(=O)CCl)c(C)n(C(C)C)c1C` [10-K21, methyl 4-(2-chloroacetyl)-2,5-dimethyl-1-(propan-2-yl)-1H-pyrrole-3-carboxylate], the viability at 48 h, 25 µM stood at 71.2%.
For the compound `O=C1NC(=O)c2cc(NC(=O)N3CCSSCC3)ccc21` [10-K22, N-(1,3-dioxo-2,3-dihydro-1H-isoindol-5-yl)-1,2,5-dithiazepane-5-carboxamide], the viability at 48 h, 25 µM was 98.8%.
Regarding `Cc1cc(C(=O)CCl)c(C)n1CCC(C)C` [10-L03, 2-chloro-1-[2,5-dimethyl-1-(3-methylbutyl)-1H-pyrrol-3-yl]ethan-1-one], the viability at 48 h, 25 µM stood at 76.2%.
With `COc1cc(OC)c(C(=O)CCl)c(OC)c1` [10-L04, 2-chloro-1-(2,4,6-trimethoxyphenyl)ethan-1-one] the figure was 80.7%; with `COc1ccc2[nH]c(C)c(C(=O)CCl)c2c1` [10-L05, 2-chloro-1-(5-methoxy-2-methyl-1H-indol-3-yl)ethan-1-one], 14.8%.
Regarding `NC(=O)c1csc(C(=O)CCl)c1` [10-L06, 5-(2-chloroacetyl)thiophene-3-carboxamide], the viability at 48 h, 25 µM came to 66.2%.
Next, `Cc1cccc(-n2cc(C(=O)CCl)nn2)c1` [10-L07]: 81.5%; `O=C(CCl)c1cscn1` [10-L08, 2-chloro-1-(1,3-thiazol-4-yl)ethan-1-one]: 59.2%; `Cc1ccc(S(=O)(=O)N2CCSSCC2)c(F)c1` [10-L09, 5-(2-fluoro-4-methylbenzenesulfonyl)-1,2,5-dithiazepane]: 92.2%.
Next, `CCCn1c(N)c(C(=O)CCl)c(=O)[nH]c1=O` [10-L10, 6-amino-5-(2-chloroacetyl)-1-propyl-1,2,3,4-tetrahydropyrimidine-2,4-dione]: 97.8%.
With `COc1ccc(N2C(=O)C=CC2=O)c([N+](=O)[O-])c1` [10-L11, 1-(4-methoxy-2-nitrophenyl)-2,5-dihydro-1H-pyrrole-2,5-dione] the figure was 100%; with `COC(=O)Cc1ccc(C(=O)CCl)s1` [10-L12, methyl 2-[5-(2-chloroacetyl)thiophen-2-yl]acetate], 76.1%; with `O=C(CCl)c1ccc(F)c(F)c1` [10-L13, 2-chloro-1-(3,4-difluorophenyl)ethan-1-one], 95.7%.
Take `N#CC(C(=O)CCl)c1nncn1-c1ccccc1` (stereo not shown) [10-L14, 4-chloro-3-oxo-2-(4-phenyl-4H-1,2,4-triazol-3-yl)butanenitrile]: the viability at 48 h, 25 µM was 83.7%.
Next, `Cn1c(=O)c(C(=O)CCl)c(N)n(Cc2ccccc2)c1=O` [10-L15, 6-amino-1-benzyl-5-(2-chloroacetyl)-3-methyl-1,2,3,4-tetrahydropyrimidine-2,4-dione]: 76.7%; `O=C(CCl)c1ccc(Cl)c(Cl)c1` [10-L16, 2-chloro-1-(3,4-dichlorophenyl)ethan-1-one]: 31.3%.
With `O=C(CCl)c1cnc(N2CCCCC2)s1` [10-L17, 2-chloro-1-[2-(piperidin-1-yl)-1,3-thiazol-5-yl]ethan-1-one], the viability at 48 h, 25 µM was 101%.
Consider `Cc1cc(C(=O)CCl)c(C)n1-c1ccc(Cl)c(C(F)(F)F)c1` [10-L18, 2-chloro-1-{1-[4-chloro-3-(trifluoromethyl)phenyl]-2,5-dimethyl-1H-pyrrol-3-yl}ethan-1-one], for which the viability at 48 h, 25 µM was 0.747%.
With `Cc1cc(F)c(C(=O)CCl)cc1F` [10-L19, 2-chloro-1-(2,5-difluoro-4-methylphenyl)ethan-1-one] the figure was 87%.
On to `Cc1cc(C(=O)CCl)c(C)n1-c1ccccc1` [10-L20, 2-chloro-1-(2,5-dimethyl-1-phenyl-1H-pyrrol-3-yl)ethan-1-one], for which the viability at 48 h, 25 µM stood at 1.11%.
Consider `O=C(Cc1cccc(F)c1)N1CCSSCC1` [10-L21, 1-(1,2,5-dithiazepan-5-yl)-2-(3-fluorophenyl)ethan-1-one], for which the viability at 48 h, 25 µM amounted to 108%.
Take `CC(=O)N1CCc2cc(C(=O)C(C)Cl)ccc21` (stereo not shown) [10-L22, 1-(1-acetyl-2,3-dihydro-1H-indol-5-yl)-2-chloropropan-1-one]: the viability at 48 h, 25 µM was determined as 82.9%.
For `O=C1CCc2cc(C(=O)CCl)ccc2N1` [10-M03, 6-(2-chloroacetyl)-1,2,3,4-tetrahydroquinolin-2-one], the viability at 48 h, 25 µM worked out at 1.31%.
Next, `CC(=O)NCc1ccc(C(=O)C(C)Cl)s1` (stereo not shown) [10-M04, N-{[5-(2-chloropropanoyl)thiophen-2-yl]methyl}acetamide]: 93.5%; `Cc1oc(C(N)=O)cc1C(=O)CCl` [10-M05, 4-(2-chloroacetyl)-5-methylfuran-2-carboxamide]: 27.7%.
Regarding `CC(Cl)C(=O)c1ccc(NC(=O)C(C)(C)C)cc1` (stereo not shown) [10-M06, N-[4-(2-chloropropanoyl)phenyl]-2,2-dimethylpropanamide], the viability at 48 h, 25 µM is 97.9%.
Take `NC(=O)COc1ccc(C(=O)CCl)cc1` [10-M07, 2-[4-(2-chloroacetyl)phenoxy]acetamide]: the viability at 48 h, 25 µM was determined as 38.6%.
For `CC(Cl)C(=O)c1ccc2c(c1)CCC2` (stereo not shown) [10-M08, 2-chloro-1-(2,3-dihydro-1H-inden-5-yl)propan-1-one], the viability at 48 h, 25 µM was found to be 95.2%.
With `O=C(CCl)c1ccncc1` [10-M09, 2-chloro-1-(pyridin-4-yl)ethan-1-one hydrochloride] the figure was 79.1%; with `O=C1C=CC(=O)N1c1ccc(F)cc1` [10-M10, 1-(4-fluorophenyl)-2,5-dihydro-1H-pyrrole-2,5-dione], 68.4%.
With `Cc1coc(C)c1C(=O)CCl` [10-M11, 2-chloro-1-(2,4-dimethylfuran-3-yl)ethan-1-one] the figure was 72.9%; with `CC(C)Cn1c(N)c(C(=O)CCl)c(=O)n(C)c1=O` [10-M12, 6-amino-5-(2-chloroacetyl)-3-methyl-1-(2-methylpropyl)-1,2,3,4-tetrahydropyrimidine-2,4-dione], 97.1%; with `CC1CC(C(=O)CCl)CO1` (stereo not shown) [10-M13, 2-chloro-1-(5-methyloxolan-3-yl)ethan-1-one], 102%.
As for `Cc1cc(C(=O)CCl)c(C)n1Cc1ccccc1` [10-M14, 1-(1-benzyl-2,5-dimethyl-1H-pyrrol-3-yl)-2-chloroethan-1-one], the viability at 48 h, 25 µM came out at 78.4%.
Take `O=C(CCl)C1CC12CCOCC2` (stereo not shown) [10-M15, 2-chloro-1-{6-oxaspiro[2.5]octan-1-yl}ethan-1-one]: the viability at 48 h, 25 µM was determined as 108%.
Regarding `O=C(c1ccccc1)c1cc(Cl)ccc1N1C(=O)C=CC1=O` [10-M16, 1-(2-benzoyl-4-chlorophenyl)-2,5-dihydro-1H-pyrrole-2,5-dione], the viability at 48 h, 25 µM is 48.7%.
Regarding `O=C(CCl)COc1ccc(Cl)cc1` [10-M17, 1-chloro-3-(4-chlorophenoxy)propan-2-one], the viability at 48 h, 25 µM was found to be 26.1%.
With `Cc1nc(C)c(S(=O)(=O)N2CCSSCC2)s1` [10-M18, 5-[(2,4-dimethyl-1,3-thiazol-5-yl)sulfonyl]-1,2,5-dithiazepane] the figure was 90.2%.
Turning to `Cn1cc(C(=O)CCl)nn1` [10-M19, 2-chloro-1-(1-methyl-1H-1,2,3-triazol-4-yl)ethan-1-one], the viability at 48 h, 25 µM amounted to 68.1%.
Next, `O=C1CCCc2cc(C(=O)CCl)ccc2N1` [10-M20, 7-(2-chloroacetyl)-2,3,4,5-tetrahydro-1H-1-benzazepin-2-one]: 80.5%; `Cc1oc(C(=O)O)cc1C(=O)CCl` [10-M21, 4-(2-chloroacetyl)-5-methylfuran-2-carboxylic acid]: 91%; `c1nc(N2CCSSCC2)c2c3c(sc2n1)CCCC3` [10-M22, 3-(1,2,5-dithiazepan-5-yl)-8-thia-4,6-diazatricyclo[7.4.0.0,2,7]trideca-1(9),2,4,6-tetraene]: 78.3%.
For `CC(=O)NCCc1ccc(C(=O)CCl)cc1` [10-N03, N-{2-[4-(2-chloroacetyl)phenyl]ethyl}acetamide], the viability at 48 h, 25 µM came out at 85.6%.
